In patent US20240317746A1, “CRYSTALLINE FORMS OF AN AZETIDINE PARP1 INHIBITOR” (XinThera, Inc., priority 2023, published 2024):
Converted amounts (≈) assume the structure as drawn. “And” between values parts separate entries of the source, which are not always exact repeats. Equal values may be shown once. “Also recorded” adds a separate entry of the source. Where a name gives a salt, the structure may show the parent alone.

Tests used:
Format in all cases: physicochemical
[1] = Preliminary solubility test: estimated solubility at RT by visual observation; conditions: organic solvent or mixture, thermodynamic from solid, read-out: Solubility
Experimental: The solubility of Compound 1 (starting material) was estimated at RT in 18 single solvents and 6 solvent mixtures by visual observation. Approximately 5 mg solids were weighed into 8 mL glass vial, and then solvent was added stepwise until solids were dissolved completely or a total of solvent volume reached 5 mL. […] The solubility was estimated and for reference only.

[2] = pH solubility profile of Form I in pH buffers; conditions: for XRPD 4 h / XRPD 24 h: wet cake
Experimental: Different pH buffers (pH 1.0, 3.0, 5.0, 6.8 and 9.0) were prepared by method in Table 18. Appropriate amount of Form I was added into 1.4 mL of different buffers (pH=1.0, 3.0, 5.0, 6.8 and 9.0) to make suspensions. The suspensions were kept shaking with a speed of 1000 rpm at 25° C. for 4 and 24 hours. At each point, the suspensions were centrifuged, and the supernatant was inspected by UPLC/pH, and the wet cakes were analyzed by XRPD. Duplicate samples were prepared.

[3] = DVS test (dynamic vapor sorption, hygroscopicity); conditions: for hygroscopicity (in words): DVS
Experimental: All the three target forms remained no change after DVS test.
Dynamic Vapor Sorption (DVS) was used to study hygroscopicity on Model Q5000 SA (TA Instruments, New Castle, DE). A sample (1-10 mg) was placed in an aluminum pan and loaded on the sample side of the twin pan balance. The water sorption and desorption were studied as a function of relative humidity (RH) at 25° C. in 10% RH increments from 0% RH to 90% RH and then back to 0%. […] Data analysis was performed using Universal Analysis 2000 Version 4.7A (TA Instruments, New Castle, DE).

[4] = Solid-state stability at 60° C. (capped) and 40° C./75% RH (open)
Experimental: (capped) and 40° C./75% RH (open) for 7 days. Duplicate samples were prepared at each condition. The stability sample was dissolved in diluent to prepare solution at ˜1 mg/mL for HPLC purity analysis. Solid samples were analyzed by XRPD to check the crystal form. […] (capped) and 40° C./75% RH (open) for at least 7 days.

[5] = Solubility in bio-relevant media (SGF, FaSSIF, FeSSIF) and water; conditions: for XRPD 0.5 h / XRPD 2 h / XRPD 24 h: filter cake; for Solubility 0.5 h / Solubility 2 h / Solubility 24 h: average n=2
Experimental: At 0.5, 2 and 24 hours, about 0.6 mL of each suspension was filtered, the filtrate was analyzed by HPLC and pH meter, and the filter cake was analyzed by XRPD. The samples were prepared in duplicate (n=2) per condition. Average value (n=2) was presented.
HPLC analysis was performed with an Agilent HPLC 1260 series instrument.

[6] = Stability relationship study (slurry turnover of Form II); conditions: anhydrates Form I vs Form II
Experimental: Form II was prepared via heating starting material to 220° C. in DSC pans. Then, about 15 mg of Form II was stirred in 0.5 mL of selected solvent at desired temperatures for 2 and 5 days. Solid samples were collected by filtration and characterized by XRPD.

[7] = Mechanical stability of Form I (manual grinding); conditions: ground by pestle and mortar for about 1 minute and 5 minutes
Experimental: Appropriate amount of Form I was manually ground by pestle and mortar for about 1 minute and 5 minutes, respectively. The ground samples were analyzed by XRPD.

[8] = Exposure of solid to air at about 38% RH and 22° C.; conditions: exposed to air at about 38% RH and 22° C.
Experimental: 6 g of Compound 1 Form I, about 99 wt % purity, was dissolved in a mixture of about 96 g of DCM and about 20 g MeOH at about 32° C. The solution was polish filtered and then the vessel was rinsed forward with a mixture of about 20 g of DCM and about 3.6 g of MeOH. The filtrate was charged with a solution containing about 2.28 g of L-tartaric acid dissolved in about 6 mL of water at about 22° C. A slurry of solids formed after stirring for about 1 day. The slurry was distilled under vacuum to about 3 V (about 20 mL) at about 40° C., and then cooled to about 22° C. It was charged with about 87 g of acetone, held at about 22° C. for about 1 h, and then cooled to about 0° C. After holding for about 4 h, the slurry was filtered, rinsed with about 24 g of pre-cooled acetone twice. The wet cake was dried at 50° C. with full house vacuum under nitrogen sweep for about 4 days to afford about 7.36 g of L-tartrate Form IV (with a small amount of L-tartrate Form I). […] When exposed to air at about 38% RH and 22° C., a small sample of Compound 1 L-tartrate Form IV completely converted to Compound 1 L-tartrate Form III in less than 20 min.

[9] = aqueous buffer, thermodynamic from solid, pH 3.0 buffer (25 mM citrate), initial pH 3.01, solid loading 5 mg/mL, 25° C.
[10] = aqueous buffer, thermodynamic from solid, pH 5.0 buffer (25 mM citrate), initial pH 4.95, solid loading 5 mg/mL, 25° C.
[11] = aqueous buffer, thermodynamic from solid, pH 6.8 buffer (25 mM phosphate), initial pH 6.78, solid loading 5 mg/mL, 25° C.
[12] = aqueous buffer, thermodynamic from solid, pH 9.0 buffer (25 mM DEA), initial pH 9.01, solid loading 5 mg/mL, 25° C.
[13] = pH 1.0 buffer, initial pH 1.01, solid loading 60 mg/mL
[14] = pH 3.0 buffer, initial pH 3.01, solid loading 5 mg/mL
[15] = pH 5.0 buffer, initial pH 4.95, solid loading 5 mg/mL
[16] = pH 6.8 buffer, initial pH 6.78, solid loading 5 mg/mL
[17] = pH 9.0 buffer, initial pH 9.01, solid loading 5 mg/mL
[18] = simulated gastric fluid, thermodynamic from solid, pH 1.0 buffer (0.1N HCl), initial pH 1.01, solid loading 60 mg/mL, 25° C.
[19] = FaSSIF, initial pH 6.45, 37° C.
[20] = FaSSIF, initial pH 6.45, filtrate
[21] = FeSSIF, initial pH 4.99, 37° C.
[22] = FeSSIF, initial pH 4.99, filtrate
[23] = Water, initial pH 5.41, filtrate

Compound: C[C@@H]1[C@@H](Oc2ccc(C(=O)NC3CC3)nc2)CN1Cc1cnc2cc(Cl)c(=O)[nH]c2c1 [Freebase Form I, 5-(((2R,3S)-1-((7-chloro-6-oxo-5,6-dihydro-1,5-naphthyridin-3-yl)methyl)-2-methylazetidin-3-yl)oxy)-N-cyclopropylpicolinamide]
- solubility ([1]; DCM/MeOH (4/1, v/v), DCM/MeOH (4/1)): > 50000 µg/mL
- solubility ([1]; most solvent systems): < 5000 µg/mL
- solubility at 4 h [2, 9]: 2460 µg/mL (≈ 5600 µM)
- solubility at 24 h [2, 9]: 784 µg/mL (≈ 1780 µM)
- solubility at 4 h [2, 10]: 83 µg/mL (≈ 189 µM)
- solubility at 24 h [2, 10]: 84 µg/mL (≈ 191 µM)
- solubility at 4 h [2, 11]: 8 µg/mL (≈ 18.2 µM)
- solubility at 24 h [2, 11]: 8 µg/mL (≈ 18.2 µM)
- solubility at 4 h [2, 12]: 14 µg/mL (≈ 31.8 µM)
- solubility at 24 h [2, 12]: 14 µg/mL (≈ 31.8 µM)
- solubility ([2]; pH 1, simulated gastric fluid, thermodynamic from solid, 0.1 N HCl, 25° C., read-out: solubility (highest)): > 40000 µg/mL
- pH 4 h [2, 13]: 2.48
- pH 24 h [2, 13]: 2.38
- XRPD 4 h ([2]; pH 1.0 buffer): Form I
- XRPD 24 h ([2]; pH 1.0 buffer): Form I
- form change of the solid ([2]; pH 3 buffer at 24 h): converted into Citrate Form I
- pH 4 h [2, 14]: 3.30
- pH 24 h [2, 14]: 3.45
- XRPD 4 h ([2]; pH 3.0 buffer): Form I
- XRPD 24 h ([2]; pH 3.0 buffer): Citrate Form I
- pH 4 h [2, 15]: 4.88
- pH 24 h [2, 15]: 4.90
- XRPD 4 h ([2]; pH 5.0 buffer): Form I
- XRPD 24 h ([2]; pH 5.0 buffer): Form I
- solubility (in words) ([2]; pH 6.8 and 9 buffers, 25° C.): low
- pH 4 h [2, 16]: 6.75
- pH 24 h [2, 16]: 6.79
- XRPD 4 h ([2]; pH 6.8 buffer): Form I
- XRPD 24 h ([2]; pH 6.8 buffer): Form I
- pH 4 h [2, 17]: 9.16
- pH 24 h [2, 17]: 9.15
- XRPD 4 h ([2]; pH 9.0 buffer): Form I
- XRPD 24 h ([2]; pH 9.0 buffer): Form I
- solubility at 4 h [2, 18]: > 44400 µg/mL
- solubility at 24 h [2, 18]: > 44500 µg/mL
- form change of the solid ([2]; the other conditions (other buffers and time points)): remained unchanged
- hygroscopicity (in words) [3]: slightly hygroscopic
- hygroscopicity (in words) ([3]; listed as Form I): slightly hygroscopic
- crystal form after DVS test ([3]; XRPD after DVS): remained unchanged
- water uptake ([3]; at 80% RH): 0.5%
- water uptake ([3]; at 80% RH, listed as Form I): 0.5% and < 1%
- water uptake ([3]; at 90% RH): 0.6%
- water uptake ([3]; at 90% RH, listed as Form I): 0.6%
- XRPD - 7 d ([4]; 40° C./75% RH (open), 7 days): Unchanged
- physical and chemical stability ([4]; 60° C. (capped) and 40° C./75% RH (open), 7 days): physically and chemically stable
- XRPD - 7 d ([4]; 60° C. (capped), 7 days): Unchanged
- Initial Purity ([4]; before storage, HPLC): 99.16 area %
- XRPD 0.5 h ([5]; FaSSIF): Unchanged
- XRPD 2 h ([5]; FaSSIF): Unchanged
- XRPD 24 h ([5]; FaSSIF): Unchanged
- Solubility 0.5 h [5, 19]: 13 µg/mL (≈ 29.6 µM)
- Solubility 2 h [5, 19]: 15 µg/mL (≈ 34.1 µM)
- Solubility 24 h [5, 19]: 15 µg/mL (≈ 34.1 µM)
- pH 0.5 h [5, 20]: 6.47
- pH 2 h [5, 20]: 6.39
- pH 24 h [5, 20]: 6.44
- XRPD 0.5 h ([5]; FeSSIF): Unchanged
- XRPD 2 h ([5]; FeSSIF): Unchanged
- XRPD 24 h ([5]; FeSSIF): Unchanged
- Solubility 0.5 h [5, 21]: 82 µg/mL (≈ 186 µM)
- Solubility 2 h [5, 21]: 83 µg/mL (≈ 189 µM)
- Solubility 24 h [5, 21]: 80 µg/mL (≈ 182 µM)
- pH 0.5 h [5, 22]: 5.01
- pH 2 h [5, 22]: 4.98
- pH 24 h [5, 22]: 4.82
- XRPD 0.5 h, 2 h, 24 h ([5]; SGF): Clear
- solubility ([5]; SGF, 37 °C, pH 1.23, simulated gastric fluid, thermodynamic from solid, SGF, 37° C., read-out: solubility in SGF): > 5000 µg/mL
- Solubility 0.5 h, 2 h, 24 h ([5]; SGF, initial pH 1.23, 37° C.): >5000 µg/mL
- pH 0.5 h ([5]; SGF, initial pH 1.23, filtrate): 1.33
- pH 2 h ([5]; SGF, initial pH 1.23, filtrate): 1.20
- pH 24 h ([5]; SGF, initial pH 1.23, filtrate): 1.28
- XRPD 0.5 h ([5]; Water): Unchanged
- XRPD 2 h ([5]; Water): Unchanged
- XRPD 24 h ([5]; Water): Unchanged
- Solubility 0.5 h ([5]; Water, initial pH 5.41, 37° C.): 11 µg/mL (≈ 25 µM)
- Solubility 2 h ([5]; Water, initial pH 5.41, 37° C.): 11 µg/mL (≈ 25 µM)
- Solubility 24 h ([5]; Water, initial pH 5.41, 37° C.): 10 µg/mL (≈ 22.7 µM)
- pH 0.5 h [5, 23]: 5.93
- pH 2 h [5, 23]: 6.54
- pH 24 h [5, 23]: 7.54
- crystal form after solubility test ([5]; XRPD of filter cake): remained unchanged
- solubility in the other media (in words) ([5]; media other than SGF (FaSSIF, FeSSIF, water), 37° C.): low solubility
- relative stability of the crystal form [6]: more stable anhydrate at RT to 80 °C; also recorded: Stable below 80 °C
- crystal form after grinding (XRPD) [7]: remained unchanged with little crystallinity decrease

Compound: C[C@@H]1[C@@H](Oc2ccc(C(=O)NC3CC3)nc2)CN1Cc1cnc2cc(Cl)c(=O)[nH]c2c1 [L-Tartrate Salt Form IV, 5-(((2R,3S)-1-((7-chloro-6-oxo-5,6-dihydro-1,5-naphthyridin-3-yl)methyl)-2-methylazetidin-3-yl)oxy)-N-cyclopropylpicolinamide]
- time to complete conversion to L-tartrate Form III [8]: less than 20 min
